Like-named read-outs stand apart in the source and are kept apart here.
Tests used:
[1] = test system: HCV genotype 1a (H77 strain) replicon in HUH-7 cells; assay: HCV replicon luciferase reporter assay, genotype 1a; type: cell-based; conditions: Hepatitis C virus, Huh-7, 72 h, 3 days incubation, read-out: LE_1a (EC50, range)
Summary of the method: (§1)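 Replicon inhibition for both genotypes was measured as Renilla luciferase signal (EnduRen, 7.5 μM final, 2 h) after 3-day, 37° C exposure of replicon-bearing HUH-7 cells in 4% FCS DMEM, 0.5% DMSO. The 1b construct carries S1179I; the 1a H77 construct carries P1496L and S2204I. Twenty-point, 3-fold dilutions were fitted four-parametrically for EC50, and CC50 was taken from multiplexed Cell Titer-Blue.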

[2] = test system: HCV genotype 1b (Con1) replicon in HUH-7 cells; assay: HCV replicon luciferase reporter assay, genotype 1b; type: cell-based; conditions: Hepatitis C virus, Huh-7, 72 h, 3 days incubation, read-out: LE_1b (EC50, range)
Summary of the method: as §1

[3] = HCV genotype 1a replicon luciferase assay, range class
[4] = HCV genotype 1b replicon luciferase assay, range class
[5] = HCV genotype 1a replicon luciferase
[6] = HCV genotype 1b replicon luciferase
[7] = GETYPE1A, HCV genotype 1a replicon luciferase
[8] = GETYPE1B, HCV genotype 1b replicon luciferase

## CCCOc1cc2c(Cl)cccc2c(O[C@@H]2C[C@H]3C(=O)N[C@]4(C(=O)NS(=O)(=O)C5(C)CC5)C[C@H]4/C=C\CC[C@H](C)C[C@@H](C)[C@H](NC(=O)OC4C[C@@H]5C[C@H]5C4)C(=O)N3C2)n1 [Compound 1087, (1S,5S)-bicyclo[3.1.0]hexan-3-yl((2R,6S,7R,9S,13aS,14aR,16aS,Z)-2-((5-chloro-3-propoxyisoquinolin-1-yl)oxy)-7,9-dimethyl-14a-(((1-methylcyclopropyl)sulfonyl)carbamoyl)-5,16-dioxo-1,2,3,5,6,7,8,9,10,11,13a,14,14a,15,16,16a-hexadecahydrocyclopropa[e]pyrrolo[1,2-a][1,4]diazacyclopentadecin-6-yl)carbamate]
[1]; [3]
  EC50: 4.82 to 103 nM
[2]; [4]
  EC50: < 5.46 nM

## COc1ccc2c(O[C@@H]3C[C@H]4C(=O)N[C@]5(C(=O)NS(=O)(=O)C6CC6)C[C@H]5/C=C\CC[C@@H](C)C[C@@H](C)[C@H](NC(=O)OC(C)(C)C)C(=O)N4C3)nccc2c1 [Compound 1068, tert-butyl ((2R,6S,7R,9R,13aS,14aR,16aS,Z)-14a-((cyclopropylsulfonyl)carbamoyl)-2-((6-methoxyisoquinolin-1-yl)oxy)-7,9-dimethyl-5,16-dioxo-1,2,3,5,6,7,8,9,10,11,13a,14,14a,15,16,16a-hexadecahydrocyclopropa[e]pyrrolo[1,2-a][1,4]diazacyclopentadecin-6-yl)carbamate]
[1]; [3]
  EC50: < 5.46 nM
[2]; [4]
  EC50: < 5.46 nM

## C[C@@H]1CC/C=C\[C@@H]2C[C@@]2(C(=O)NS(=O)(=O)C2(C)CC2)NC(=O)[C@@H]2C[C@@H](Oc3cnc4ccc(F)cc4n3)CN2C(=O)[C@@H](NC(=O)OC(C)(C)C)[C@H](C)C1 [Compound 4179, tert-butyl (2R,6S,7R,9R,13aS,14aR,16aS,Z)-2-(7-fluoroquinoxalin-2-yloxy)-7,9-dimethyl-14a-(1-methylcyclopropylsulfonylcarbamoyl)-5,16-dioxo-1,2,3,5,6,7,8,9,10,11,13a,14,14a,15,16,16a-hexadecahydrocyclopropa[e]pyrrolo[1,2-a][1,4]diazacyclopentadecin-6-ylcarbamate]
[1]; [5]
  EC50: < 5.46 nM
[2]; [6]
  EC50: < 5.46 nM

## C[C@@H]1CC/C=C\[C@@H]2C[C@@]2(C(=O)NS(=O)(=O)C2(C)CC2)NC(=O)[C@@H]2C[C@@H](Oc3cnc4cc(F)ccc4n3)CN2C(=O)[C@@H](NC(=O)OC(C)(C)C(F)(F)F)[C@H](C)C1 [Compound 4099]
[1]; [7]
  EC50: < 5.46 nM
[2]; [8]
  EC50: < 5.46 nM

## COc1ccc2c(O[C@@H]3C[C@H]4C(=O)N[C@]5(C(=O)NS(=O)(=O)C6CC6)C[C@H]5/C=C\CC[C@H](C)C[C@@H](C)[C@H](NC(=O)OC(C)(C)C(F)(F)F)C(=O)N4C3)nc(-c3ccc(N4CCOCC4)cc3)cc2c1 [Compound 5196, 1,1,1-trifluoro-2-methylpropan-2-yl((2R,6S,7R,9S,13aS,14aR,16aS,Z)-14a-((cyclopropylsulfonyl)carbamoyl)-2-((6-methoxy-3-(4-morpholinophenyl)isoquinolin-1-yl)oxy)-7,9-dimethyl-5,16-dioxo-1,2,3,5,6,7,8,9,10,11,13a,14,14a,15,16,16a-hexadecahydrocyclopropa[e]pyrrolo[1,2-a][1,4]diazacyclopentadecin-6-yl)carbamate]
[1]; [5]
  EC50: < 5.46 nM
[2]; [6]
  EC50: < 5.46 nM

## CC[C@@H]1C[C@@H](C)CC/C=C\[C@@H]2C[C@@]2(C(=O)NS(=O)(=O)C2(C)CC2)NC(=O)[C@@H]2C[C@@H](Oc3ncc(OC)c4cc(OC)c(F)cc34)CN2C(=O)[C@H]1NC(=O)OC(C)(C)C(F)(F)F [Compound 4208]
[1]; [7]
  EC50: 4.82 to 103 nM
[2]; [8]
  EC50: < 5.46 nM

## C[C@H]1CC/C=C\[C@@H]2C[C@@]2(C(=O)NS(=O)(=O)C2(C)CC2)NC(=O)[C@@H]2C[C@@H](Oc3nccc4c5c(ccc34)OCCO5)CN2C(=O)[C@@H](NC(=O)OC(C)(C)C(F)(F)F)[C@H](C)C1 [Compound 5246, 1,1,1-trifluoro-2-methylpropan-2-yl((2R,6S,7R,9S,13aS,14aR,16aS,Z)-2-((2,3-dihydro-[1,4]dioxino[2,3-f]isoquinolin-7-yl)oxy)-7,9-dimethyl-14a-(((1-methylcyclopropyl)sulfonyl)carbamoyl)-5,16-dioxo-1,2,3,5,6,7,8,9,10,11,13a,14,14a,15,16,16a-hexadecahydrocyclopropa[e]pyrrolo[1,2-a][1,4]diazacyclopentadecin-6-yl)carbamate]
[1]; [5]
  EC50: 4.82 to 103 nM
[2]; [6]
  EC50: 4.82 to 103 nM

## COc1cnc(O[C@@H]2C[C@H]3C(=O)N[C@]4(C(=O)NS(=O)(=O)C5(CO)CC5)C[C@H]4/C=C\CC[C@@H](C)C[C@@H](C)[C@H](N)C(=O)N3C2)c2ccccc12 [Compound 4112, (2R,6S,7R,9R,13aS,14aR,16aS,Z)-6-amino-N-(1-(hydroxymethyl)cyclopropylsulfonyl)-2-(4-methoxyisoquinolin-1-yloxy)-7,9-dimethyl-5,16-dioxo-1,2,3,5,6,7,8,9,10,11,13a,14,14a,15,16,16a-hexadecahydrocyclopropa[e]pyrrolo[1,2-a][1,4]diazacyclopentadecine-14a-carboxamide]
[1]; [5]
  EC50: > 87.4 nM
[2]; [6]
  EC50: > 87.4 nM

## COc1cnc(O[C@@H]2C[C@H]3C(=O)N[C@]4(C(=O)NS(=O)(=O)C5CC5)C[C@H]4/C=C\CC[C@@H](C)C[C@@H](C)[C@H](NC(=O)OC(C)(C)C(F)(F)F)C(=O)N3C2)c2cc(F)ccc12 [Compound 4059]
[1]; [7]
  EC50: < 5.46 nM
[2]; [8]
  EC50: < 5.46 nM

## [2H]C([2H])([2H])Oc1cnc(O[C@@H]2C[C@H]3C(=O)N[C@]4(C(=O)NS(=O)(=O)C5(C)CC5)C[C@H]4/C=C\CC[C@H](C)C[C@@H](C)[C@H](NC(=O)OC(C)(C)C(F)(F)F)C(=O)N3C2)c2ccccc12 [Compound 5102, 1,1,1-trifluoro-2-methylpropan-2-yl((2R,6S,7R,9S,13aS,14aR,16aS,Z)-7,9-dimethyl-14a-(((1-methylcyclopropyl)sulfonyl)carbamoyl)-5,16-dioxo-2-((4-(trideuteromethoxy)isoquinolin-1-yl)oxy)-1,2,3,5,6,7,8,9,10,11,13a,14,14a,15,16,16a-hexadecahydrocyclopropa[e]pyrrolo[1,2-a][1,4]diazacyclopentadecin-6-yl)carbamate]
[1]; [5]
  EC50: < 5.46 nM
[2]; [6]
  EC50: < 5.46 nM

## COc1ccc2c(O[C@@H]3C[C@H]4C(=O)N[C@]5(C(=O)NS(=O)(=O)C6CC6)C[C@H]5/C=C\CC[C@@H](C)C[C@@H](C)[C@H](NC(=O)OC(C)(C)C)C(=O)N4C3)nc(-c3ccc(OC(C)C)cn3)cc2c1 [Compound 5201, tert-butyl ((2R,6S,7R,9R,13aS,14aR,16aS,Z)-14a-((cyclopropylsulfonyl)carbamoyl)-2-((3-(5-isopropoxypyridin-2-yl)-6-methoxyisoquinolin-1-yl)oxy)-7,9-dimethyl-5,16-dioxo-1,2,3,5,6,7,8,9,10,11,13a,14,14a,15,16,16a-hexadecahydrocyclopropa[e]pyrrolo[1,2-a][1,4]diazacyclopentadecin-6-yl)carbamate]
[1]; [5]
  EC50: < 5.46 nM
[2]; [6]
  EC50: < 5.46 nM

## COc1ccc2c(O[C@@H]3C[C@H]4C(=O)N[C@]5(C(=O)NS(=O)(=O)C6(CF)CC6)C[C@H]5/C=C\CC[C@@H](C)C[C@@H](C)[C@H](NC(=O)OC(C)(C)C(F)(F)F)C(=O)N4C3)nc(OC)nc2c1 [Compound 3020]
[1]; GETYPE1A, HCV genotype 1a replicon luciferase assay, range class
  EC50: 4.82 to 103 nM
[2]; GETYPE1B, HCV genotype 1b replicon luciferase assay, range class
  EC50: < 5.46 nM

## CC[C@@H]1C[C@H](C)CC/C=C\[C@@H]2C[C@@]2(C(=O)NS(=O)(=O)C2CC2)NC(=O)[C@@H]2C[C@@H](Oc3nc(-c4ccc(OC(C)C)cn4)cc4cc(OC)ccc34)CN2C(=O)[C@H]1NC(=O)OC(C)(C)C [Compound 5479, tert-butyl ((2R,6S,7R,9R,13aS,14aR,16aS,Z)-14a-((cyclopropylsulfonyl)carbamoyl)-7-ethyl-2-((3-(5-isopropoxypyridin-2-yl)-6-methoxyisoquinolin-1-yl)oxy)-9-methyl-5,16-dioxo-1,2,3,5,6,7,8,9,10,11,13a,14,14a,15,16,16a-hexadecahydrocyclopropa[e]pyrrolo[1,2-a][1,4]diazacyclopentadecin-6-yl)carbamate]
[1]; [5]
  EC50: 1.01 to 5 nM
[2]; [6]
  EC50: 0.51 to 1 nM

## C[C@H]1CC/C=C\[C@@H]2C[C@@]2(C(=O)NS(=O)(=O)C2(C)CC2)NC(=O)[C@@H]2C[C@@H](Oc3ncc(OCC(F)F)c4ccccc34)CN2C(=O)[C@@H](NC(=O)OC(C)(C)C(F)(F)F)[C@H](C)C1 [Compound 1029, 1,1,1-trifluoro-2-methylpropan-2-yl((2R,6S,7R,9S,13aS,14aR,16aS,Z)-2-((4-(2,2-difluoroethoxyl)isoquinolin-1-yl)oxy)-7,9-dimethyl-14a-(((1-methylcyclopropyl)sulfonyl)carbamoyl)-5,16-dioxo-1,2,3,5,6,7,8,9,10,11,13a,14,14a,15,16,16a-hexadecahydrocyclopropa[e]pyrrolo[1,2-a][1,4]diazacyclopentadecin-6-yl)carbamate]
[1]; [3]
  EC50: 4.82 to 103 nM
[2]; [4]
  EC50: 4.82 to 103 nM

Source: patent US9499550B2 (BRISTOL-MYERS SQUIBB COMPANY, priority 2012, dated 2016)
